What was measured:
[1] = target: NACHT, LRR and PYD domains-containing protein 3 (Mus musculus, UniProt Q8R4B8); assay: Inhibition of NLRP3 in mouse J774A.1 cells infected with FLA-ST assessed as inhibition of LPS- induced IL-1beta production by ELISA; format: cell-based, J774.A1
[2] = Solubility of compound; format: physicochemical

Chain of NACHT, LRR and PYD domains-containing protein 3 (Q8R4B8 whole entry, the tested form may be a part): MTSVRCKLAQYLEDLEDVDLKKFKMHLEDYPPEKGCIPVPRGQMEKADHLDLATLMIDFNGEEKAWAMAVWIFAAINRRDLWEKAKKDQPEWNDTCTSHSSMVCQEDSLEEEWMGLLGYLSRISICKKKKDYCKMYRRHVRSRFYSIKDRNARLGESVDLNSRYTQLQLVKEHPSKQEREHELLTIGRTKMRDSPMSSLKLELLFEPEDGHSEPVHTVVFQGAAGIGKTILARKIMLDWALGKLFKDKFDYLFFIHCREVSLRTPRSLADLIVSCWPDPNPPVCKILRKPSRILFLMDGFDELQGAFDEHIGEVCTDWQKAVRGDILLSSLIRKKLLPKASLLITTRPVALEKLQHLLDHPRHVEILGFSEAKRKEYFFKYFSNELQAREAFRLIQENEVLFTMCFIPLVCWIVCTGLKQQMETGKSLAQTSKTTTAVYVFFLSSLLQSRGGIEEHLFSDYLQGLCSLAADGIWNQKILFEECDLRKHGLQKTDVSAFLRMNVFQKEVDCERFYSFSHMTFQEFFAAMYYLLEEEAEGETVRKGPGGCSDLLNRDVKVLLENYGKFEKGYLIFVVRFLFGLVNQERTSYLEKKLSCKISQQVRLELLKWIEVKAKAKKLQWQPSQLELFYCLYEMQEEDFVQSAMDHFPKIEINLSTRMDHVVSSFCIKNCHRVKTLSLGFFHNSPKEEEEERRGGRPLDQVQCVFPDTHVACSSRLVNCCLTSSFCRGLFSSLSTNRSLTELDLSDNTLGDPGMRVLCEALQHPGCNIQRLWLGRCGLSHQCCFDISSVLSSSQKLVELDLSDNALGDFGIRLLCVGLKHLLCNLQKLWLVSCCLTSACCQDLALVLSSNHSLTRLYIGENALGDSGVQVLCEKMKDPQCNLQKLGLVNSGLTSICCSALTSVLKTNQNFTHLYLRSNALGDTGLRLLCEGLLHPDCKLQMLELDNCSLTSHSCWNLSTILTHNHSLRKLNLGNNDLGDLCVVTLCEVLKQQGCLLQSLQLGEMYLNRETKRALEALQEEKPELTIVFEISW

SMILES	IC50 [1] [µM]	solubility [2]
COc1c(C)cc(/C=C/C(=O)c2ccc(SC)cc2)cc1C	49.5	
Cc1cc(/C=C/C(=O)c2ccc(I)cc2)cc(C)c1O	28.6	
CSc1ccc(C(=O)/C=C/c2c(C)cc(O)cc2C)cc1	> 40	
Cc1ccc(-c2ccc(C(=O)/C=C/c3cc(C)c(O)c(C)c3)cc2)s1	> 40	
COc1c(C)cc(/C=C/C(=O)c2ccc(NC(=O)Nc3ccc(C)cc3)cc2)cc1C	38.7	
Cc1cc(/C=C/C(=O)c2ccc(-c3ccccc3)cc2)cc(C)c1O	29.4	
COc1c(C)cc(/C=C/C(=O)c2ccc(N(C)C)cc2)cc1C	25.9	
CSc1ccc(C(=O)/C=C/c2cc(C)c(OCC(=O)O)c(C)c2)cc1	> 40	

The next molecules have a lower IC50 [1] than those just listed; values first:

IC50 [1] [µM]	solubility [2]	SMILES
23.5		COc1c(C)cc(/C=C/C(=O)c2ccc(NC(=O)Nc3ccc(F)cc3)cc2)cc1C
14.6		CSc1ccc(C(=O)/C=C/c2ccc(O)cc2)cc1
12.9		Cc1cc(/C=C/C(=O)c2ccc(S(C)(=O)=O)cc2)cc(C)c1O
12.7		CSc1ccc(C(=O)/C=C/c2ccc(O)cc2F)cc1
12.3		Cc1cc(/C=C/C(=O)c2ccc(F)cc2)cc(C)c1O
11.7		CCc1cc(/C=C/C(=O)c2ccc(SC)cc2)cc(CC)c1O
9.7		CSc1ccc(C(=O)/C=C/c2ccc(O)c(Cl)c2)cc1
8.8		CSc1ccc(C(=O)/C=C/c2ccc(O)c(C)c2)cc1
5.3		CSc1ccc(C(=O)/C=C/c2cc(C)c(O)cc2C)cc1
3.9		Cc1cc(/C=C/C(=O)c2ccc(Cl)cc2)cc(C)c1O
3		CCN(CC)C(=S)SSC(=S)N(CC)CC [DISULFIRAM]
1.6	Insoluble	CSc1ccc(C(=O)/C=C/c2ccc(O)c(O)c2)cc1
0.1		CS(=O)(=O)CCC#N [DAPANSUTRILE]
